Data: patent publication US12679839B2, “Cyclin-dependent kinase 7 (CDK7) non-covalent inhibitors” (JANSSEN PHARMACEUTICA NV, priority 2020, dated 2026)

Tests used:
[1] = biological target: T1, CDK7/Cyclin H/MAT-1 complex (Homo sapiens, UniProt P50613); assay: Flint assay, end-point fluorescence (5 nM CDK7/Cyclin H/MAT-1 complex); type: biochemical; settings: read-out: CDK7 (5 nM) pIC50 (converted)
T1 construct: Human CDK7 (amino acids 1-346); His6 (N); TEV protease cleavage site (N); made in house; host or cells: baculovirus-SF9 insect cells
T1 sequence (P50613 whole entry, the tested form may be a part): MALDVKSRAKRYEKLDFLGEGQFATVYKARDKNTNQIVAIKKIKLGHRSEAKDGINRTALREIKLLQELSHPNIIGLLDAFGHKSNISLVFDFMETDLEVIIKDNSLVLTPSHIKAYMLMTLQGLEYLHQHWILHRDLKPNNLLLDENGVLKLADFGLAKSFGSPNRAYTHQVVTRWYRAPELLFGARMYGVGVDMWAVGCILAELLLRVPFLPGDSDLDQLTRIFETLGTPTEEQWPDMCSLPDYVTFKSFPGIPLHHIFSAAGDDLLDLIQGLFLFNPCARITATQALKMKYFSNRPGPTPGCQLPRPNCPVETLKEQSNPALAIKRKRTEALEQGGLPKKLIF
T1 sequence (P51946 whole entry partner, the tested form may be a part): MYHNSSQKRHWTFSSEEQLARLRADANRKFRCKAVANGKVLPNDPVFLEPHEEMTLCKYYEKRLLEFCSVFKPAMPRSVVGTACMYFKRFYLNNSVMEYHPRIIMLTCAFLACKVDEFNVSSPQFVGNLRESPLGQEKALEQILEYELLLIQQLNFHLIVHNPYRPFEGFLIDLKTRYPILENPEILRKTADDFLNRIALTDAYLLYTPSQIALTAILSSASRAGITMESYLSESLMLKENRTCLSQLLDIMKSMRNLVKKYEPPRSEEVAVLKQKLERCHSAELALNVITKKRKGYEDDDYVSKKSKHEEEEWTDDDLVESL
T1 sequence (P51948 whole entry partner, the tested form may be a part): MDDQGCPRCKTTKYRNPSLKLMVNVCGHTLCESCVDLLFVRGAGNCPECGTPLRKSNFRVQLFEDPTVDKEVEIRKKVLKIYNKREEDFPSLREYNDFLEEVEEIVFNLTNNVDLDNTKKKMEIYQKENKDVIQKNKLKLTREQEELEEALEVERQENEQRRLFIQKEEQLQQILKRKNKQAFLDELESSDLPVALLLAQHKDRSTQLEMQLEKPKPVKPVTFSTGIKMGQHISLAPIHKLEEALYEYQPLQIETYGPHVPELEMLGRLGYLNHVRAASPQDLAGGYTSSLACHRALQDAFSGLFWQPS
Procedure, shortened: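 Trimeric complex of His6-TEV-tagged human CDK7 (1-346), MAT1 (1-309) and cyclin H (1-323), co-expressed in Sf9 cells, at 5 nM final, with substrates and coupling reagents as in the absorbance assay; 24 h reaction. End-point NADH fluorescence decrease (ex 340/em 440 nm); % inhibition versus no-inhibitor and full-inhibition controls, IC50 from four-parameter Hill fit.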

[2] = tested on: RNA polymerase II Serine 5 phosphorylation (Rpb1 CTD), downstream substrate of CDK7; assay: Imaging-based cellular RNA PolII Ser5 phosphorylation assay in A549 cells; type: cell-based, human; settings: Homo sapiens, A549, 3 h, challenged with compound for 3 hours, read-out: pRNA polII Ser5 (A549) pIC50 (converted)
Procedure, shortened: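 A549 cells seeded 20 h in DMEM with 1% FBS, then exposed to compound for 3 h at 37 °C; fixed, methanol-permeabilized and immunostained for phospho-Rpb1 CTD Ser5, read by automated imaging. Signal normalized to DMSO (high) and 10 μM LDC4297 (low) controls; IC50 from four-parameter fit of % control vs concentration.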

IC50 [1] | IC50 [2] | SMILES
6.17 nM | 110 nM | CC1CN(C(=O)[C@H]2CCN(C)C[C@@H]2c2ccccc2)Cc2nc(Nc3cnn(C)c3)ncc21 (mixture of isomers) [Compound 194]
2.51 nM | 129 nM | [2H]C([2H])([2H])N1CC[C@H](C(=O)N2Cc3nc(NCc4ccccc4)ncc3C[C@H]2C)[C@@H](c2ccccc2)C1 (single isomer, unassigned) [Compound 154]
17.4 nM | 692 nM | C[C@@H]1Cc2cnc(NC3CCOCC3)nc2CN1C(=O)[C@H]1CCN(C)C[C@@H]1C (relative stereo) [Compound 146]
22.4 nM | 1020 nM | CN1CC[C@H](C(=O)N2Cc3nc(NC4CCOCC4)ncc3CC2(C)C)[C@@H](c2ccccc2)C1 (relative stereo) [Compound 189]
< 2.51 nM | ~26.9 nM | [2H]C([2H])([2H])N1CC[C@@H](C(=O)N2Cc3nc(NCc4ccn(C)n4)ncc3C[C@H]2C)[C@H](c2cccc(C)c2)C1 (single isomer, unassigned) [Compound 148]
10 nM | 759 nM | C[C@@H]1Cc2cnc(N[C@H]3CCCNC3)nc2CN1C(=O)[C@H]1CCN(C)C[C@@H]1C(F)(F)F (relative stereo) [Compound 144]
105 nM | 2510 nM | C[C@H]1CN(C(=O)[C@H]2CCN(C)C[C@@H]2c2ccccc2)[C@@H](C)c2nc(NC3CCOCC3)ncc21 (relative stereo) [Compound 181]
4.9 nM | 72.4 nM | C[C@@H]1Cc2cnc(NC3CCOCC3)nc2[C@H](C)N1C(=O)[C@H]1CCN(C)C[C@@H]1c1ccccc1 (single isomer, unassigned) [Compound 195b]
100 nM | 2950 nM | C[C@@H]1CN(C)CC[C@H]1C(=O)N1Cc2nc(NC3CCOCC3)ncc2C[C@H]1C (relative stereo) [Compound 145]
2.82 nM | 105 nM | C[C@@H]1CN(C(=O)[C@H]2CCN(C)C[C@@H]2c2ccccc2)Cc2nc(NC3CCOCC3)ncc21 (relative stereo) [Compound 188]

The next lines start with the molecule.

SMILES | IC50 [1] | IC50 [2]
C[C@@H]1Cc2cnc(N[C@@H]3CCC(=O)N(C)C3)nc2CN1C(=O)[C@H]1CCN(C)C[C@@H]1c1ccccc1 (relative stereo) [Compound 6] | 3.8 nM | 832 nM
C[C@@H]1Cc2cnc(NC3CCOCC3)nc2CN1C(=O)[C@H]1CCN(C)C[C@@H]1c1ccc(Cl)cc1 (relative stereo) [Compound 132] | 3.63 nM | ~81.3 nM
C[C@@H]1Cc2cnc(N[C@H]3CCOC(C)(C)C3)nc2CN1C(=O)[C@H]1CCN(C)C[C@@H]1c1ccccc1 (relative stereo) [Compound 39] | 5.01 nM | 398 nM
C[C@@H]1Cc2cnc(NCc3ccn(C)n3)nc2CN1C(=O)[C@H]1CCN(C)C[C@@H]1c1cccc(C(F)(F)F)c1 (relative stereo) [Compound 129] | 4.9 nM | ~41.7 nM
C[C@@H]1Cc2cnc(NCc3ccn(C)n3)nc2CN1C(=O)[C@H]1CCN(C)C[C@@H]1C(F)(F)F (relative stereo) [Compound 143] | 8.91 nM | 2570 nM
Cc1cccc([C@H]2CN(C)CC[C@@H]2C(=O)N2Cc3nc(NC4CCOCC4)ncc3C[C@H]2C)c1 (relative stereo) [Compound 134] | 3.16 nM | ~67.6 nM
C[C@@H]1Cc2cnc(NCc3ccccc3)nc2CN1C(=O)[C@@H]1CCN(C)C[C@H]1C(F)(F)F (relative stereo) [Compound 141] | 8.51 nM | > 10000 nM
Cc1cc([C@@H]2CN(C)CC[C@H]2C(=O)N2Cc3nc(NC4CCOCC4)ncc3C[C@H]2C)ccn1 (relative stereo) [Compound 102] | 19.5 nM | 1700 nM
C[C@@H]1Cc2cnc(NCc3ccn(C)n3)nc2CN1C(=O)[C@H]1CCN(C)C[C@@H]1c1ccccc1C(F)F (relative stereo) [Compound 139] | 49 nM | 1260 nM
Cc1cccc([C@@H]2CN(C)CC[C@H]2C(=O)N2Cc3nc(NCc4ccn(C)n4)ncc3C[C@H]2C)c1 (relative stereo) [Compound 136] | 15.8 nM | ~27.5 nM
C[C@@H]1Cc2cnc(NC3CCOCC3)nc2CN1C(=O)[C@H]1CCN(C)C[C@@H]1c1cccc(F)c1 (relative stereo) [Compound 133] | 8.13 nM | 97.7 nM
CO[C@H]1CC[C@H](Nc2ncc3c(n2)CN(C(=O)[C@@H]2CCN(C)C[C@H]2c2ccnc(C)c2)[C@H](C)C3)CC1 (relative stereo) [Compound 105] | 10 nM | 407 nM
